# Laboratory results from US9949976B2, “Kinase inhibitor and use thereof” (Sihuan Pharmaceutical Holdings Group Ltd., priority 2013, dated 2018).
# How the values were obtained:
# [1] = biological target: CDK6/D3 (Homo sapiens, UniProt Q00534); test: In vitro enzyme-inhibiting activity, Caliper Mobility Shift method; format: biochemical; details: read-out: CDK enzyme-inhibiting activity IC50 CDK6/D3
# Protocol: Measurement of activity for inhibiting CDK4/6 kinase by Caliper Mobility Shift method.
# 50 mL stock solution containing 1000 mM HEPES (pH 7.5), and 50 μL stock solution containing 30% Brij-35, were added to 949.95 mL ultra pure water, and the resultant mixture was mixed homogeneously.
# 25 mL stock solution containing 4% Coating Reagent #3 (provided with the 12-sipper chip used in Caliper device), 50 mL stock solution containing 1000 mM HEPES (pH 7.5), 50 mL stock solution containing 0.5 M EDTA, and 0.25 mL stock solution containing 30% Brij-35, were added to 374.75 mL ultra pure water, and the resultant mixture was mixed homogeneously.
# 18 μL CDK6/D3 enzyme solution, and 14 μL stock solution containing 1M DTT were added to 2768 μL 1-fold CDK6 kinase buffer, and the resultant mixture was mixed homogeneously.
# 23 μL stock solution containing 100 mM ATP, 75 μL stock solution containing 1M MgCl2, and 75 μL FAM-tagged polypeptide 8, were added to 2827 μL 1-fold CDK6 kinase buffer, and the resultant mixture was mixed homogeneously.
# DMSO solution containing 10 mM test compound was diluted with DMSO to a solution containing 50 μM test compound (which was used as a stock solution).
# 1) 5 μL 5-fold test compound solution and 10 μL 2.5-fold kinase solution were added to the corresponding wells in a 384-well plate, and incubated at room temperature for 10 min.
# 2) To the corresponding wells, 10 μL 2.5-fold polypeptide solution was added to start the enzymatic reaction, and incubation was performed at 28° C. for 5 h.
# To the corresponding wells, 25 μL stop solution was added to stop the reaction.
# The data was read by Caliper device, the inhibition rate was calculated by the following formula, and curve fitting was carried out by GraphPad5.0 software to get IC50 value. Inhibition rate=(maximal value−sample value)/(maximal value−minimal value)×100, wherein, maximal value: positive control without addition of test compound; minimal value: negative control without addition of enzyme.
# [2] = test system: HGC-27 gastric cancer cell; test: BrdU cell proliferation assay (Cell Signaling kit); format: cell-based; details: Homo sapiens, HGC-27, 72 h; read-out: In vitro cell-inhibiting activity IC50 HGC-27
# Protocol: Experimental method: cell proliferation assay was carried out by BrdU method (BrdU cell proliferation assay kit, Cell Signaling Technology Company).
# Preparation of gradient dilution solutions of test compound: the stock solution containing 10 mM test compound was subjected to 4-fold stepwise dilution with DMSO to prepare solutions containing 2.5 mM, 625 μM, 156 μM, 39 μM, 9.8 μM, and 2.5 μM test compound, respectively. 2 μL DMSO-diluted compound was added to 198 μL culture medium containing 10% FBS to prepare […] test compound, wherein the maximum concentration of the test compound was 100 μM, the concentration of DMSO was 1%, and there were 7 concentration gradients.
# HGC-27 medium: DMEM+10% FBS
# (1) Cells grown to 80% confluence (in exponential growth phase) were digested with pancreatin, and centrifuged to collect the cells. Cells were re-suspended in FBS-free culture medium, counted, and seeded to a 96-well plate at 4000 cells/well/81 μL. The plates were placed in a cell incubator at 37° C.
# (2) After 24 h culture, 9 μL FBS was added to each well to reach a final FBS concentration of 10%. […]
# (9) To each well, 100 μL stop solution was added, and OD value at 450 nm was measured by ELISA instrument 3. […]
# [3] = test system: esophageal cancer PDX model; test: In vivo pharmacodynamics, esophageal cancer PDX model; design: species or system female BALB/c nude mouse; details: 150 mg/kg PO QD 21 days
# Protocol: (§1) Tumor tissues were harvested from tumor-bearing mice of esophageal cancer PDX model, cut into pieces with diameter of 2-4 mm and seeded subcutaneously to right lateral thorax of female BALB/c nude mouse. When the tumors' average volume reached about 150 mm^3, the animals were grouped and administered with a drug. Compound 1 was orally administrated once a day at an amount of 150 mg/kg, for 21 days. The volume of the drug for administration is 0.1 mL/10 g according to animal's body weight.
# (§2) Tumor volume was measured with vernier calipers twice a week by measuring the major diameter and the minor diameter. The tumor volume is calculated by the following formula: volume=0.5×(major diameter)×(minor diameter)^2. The relative tumor volume (RTV) and the proliferation ratio (T/C) were calculated according to the result of measurement. RTV=Vt/V0, wherein Vt is the average tumor volume on the t day after grouping, and V0 is the average tumor volume on the day of grouping. T/C (%)=RTV of treatment group/RTV of solvent control group×100%.
# (§3) One-way ANOVA was used for analysing the group statistical analysis of tumor volumes. p<0.05 was regarded as having significant difference.
# [4] = test system: liver cancer PDX model; test: In vivo pharmacodynamics, liver cancer PDX model; design: species or system female NU/NU nude mouse; details: 200 mg/kg PO QD 21 days
# Protocol: as §1, with “liver” for “esophageal”, “[…]” for “2-4”, “back” for “right lateral thorax”, “NU/NU” for “BALB/c”, “100-300” for “about 150”, “200” for “150”
# as §2, §3
# [5] = test system: Capan-1 human pancreatic cancer cell; test: In vivo pharmacodynamics, subcutaneous Capan-1 pancreatic cancer xenograft model; design: species or system female BALB/c nude mouse; details: Capan-1 xenograft, 100 mg/kg PO QD 21 days
# Protocol: Culture medium of Capan-1 pancreatic cancer cell: IMDM culture medium+10% fetal bovine serum+100 U/mL penicillin and 100 μg/mL streptomycin+2 mM glutamine.
# Cells were cultured and passaged. Tumor cells in exponential growth phase were used for in vivo tumor seeding. The cells were seeded subcutaneously to right lateral thorax of female BALB/c nude mouse. When tumor grew to a volume of about 150 mm^3, the animals were grouped and administered with a drug. Compound 1 was orally administrated once a day at an amount of 100 mg/kg, for 21 days. The volume of the drug for administration is 0.1 mL/10 g according to animal's body weight.
# as §2, with “diameter).” for “diameter)^2.”, “T/C=RTV” for “T/C (%)=RTV”
# SPSS statistical software was used for T test on the 2 groups of independent samples, and for group statistical analysis of tumor volumes. p<0.05 was regarded as having significant difference.
# CDK6/D3, sequence (Q00534 whole entry): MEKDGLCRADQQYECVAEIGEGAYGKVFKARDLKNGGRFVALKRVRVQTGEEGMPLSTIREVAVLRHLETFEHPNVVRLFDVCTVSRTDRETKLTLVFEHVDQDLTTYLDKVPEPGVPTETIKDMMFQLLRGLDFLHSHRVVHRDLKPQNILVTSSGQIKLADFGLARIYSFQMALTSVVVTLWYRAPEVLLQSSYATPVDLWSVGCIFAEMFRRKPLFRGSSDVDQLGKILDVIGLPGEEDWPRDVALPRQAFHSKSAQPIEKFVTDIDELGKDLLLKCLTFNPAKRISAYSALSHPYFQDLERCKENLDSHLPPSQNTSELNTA
# CDK6/D3, sequence (P30281 whole entry partner): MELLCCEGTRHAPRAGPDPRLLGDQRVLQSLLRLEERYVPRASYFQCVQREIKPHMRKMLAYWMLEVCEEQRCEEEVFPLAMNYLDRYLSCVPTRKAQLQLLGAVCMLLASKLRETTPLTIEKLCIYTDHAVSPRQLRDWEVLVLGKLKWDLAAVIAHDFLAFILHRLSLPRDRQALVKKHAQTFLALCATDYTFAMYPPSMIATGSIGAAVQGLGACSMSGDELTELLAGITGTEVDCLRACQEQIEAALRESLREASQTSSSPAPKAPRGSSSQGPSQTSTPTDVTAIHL
smiles,measurement,setting,value
"CCN1CCN(Cc2cnc(Nc3cc(-c4cc(F)c5nc(C)n(C(C)C)c5c4)c(F)cn3)nc2)CC1 [Compound 1, 5-((4-ethylpiperazin-1-yl)methyl)-N-(5-fluoro-4-(4-fluoro-1-isopropyl-2-methyl-1H-benzo[d]imidazol-6-yl)pyridin-2-yl)pyrimidin-2-amine]",IC50,[1],16 nM
same,IC50,[2],316 nM
same,T/C (proliferation ratio),[3]; 150 mg/kg,29%
same,Tumor volume after administration,[3]; average ± standard error,221.6 ± 27.2 mm^3
same,Tumor volume before administration,[3]; average ± standard error,177.7 ± 28.5 mm^3
same,T/C (proliferation ratio),[4],31.74%
same,Tumor volume after administration,[4]; average ± standard error,199.22 ± 33.76 mm^3
same,Tumor volume before administration,[4]; average ± standard error,164.8 ± 10.35 mm^3
same,T/C,[5],31.5%
same,TGI (inhibition ratio of tumor growth),[5],68.5%
same,Tumor volume after administration,[5]; average ± standard error,368 ± 48 mm^3
same,Tumor volume before administration,[5]; average ± standard error,150 ± 12 mm^3
